pIC50: −log10 of the molar value.
Columns and labels:
CDK2/CyclinE1 = CDK2/CyclinE1 (Homo sapiens (Human), UniProt P24941); assay: CDK2 kinase assay (TR-FRET); assay type: biochemical; settings: CDK2/CyclinE1 0.5 nM, ATP 50 μM
Outline: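 Compounds were preincubated 10 min at room temperature with enzyme in 50 mM HEPES pH 7.5, 10 mM MgCl2, 1 mM EGTA, 2 mM DTT, 0.01% Tween-20, BSA. Substrate reaction ran 30 min at 25 °C, was stopped with EDTA and read by LANCE TR-FRET (ex 320/em 665 nm) after 1 h. IC50 came from a four-parameter fit of % inhibition.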

CDK1/CyclinB1 = CDK1/CyclinB1 (Homo sapiens (Human), UniProt P06493); assay: CDK1 kinase assay (TR-FRET); assay type: biochemical; settings: CDK1/CyclinB 7.5 nM, ATP 17 μM
Chain of CDK1/CyclinB1 (P06493 whole entry): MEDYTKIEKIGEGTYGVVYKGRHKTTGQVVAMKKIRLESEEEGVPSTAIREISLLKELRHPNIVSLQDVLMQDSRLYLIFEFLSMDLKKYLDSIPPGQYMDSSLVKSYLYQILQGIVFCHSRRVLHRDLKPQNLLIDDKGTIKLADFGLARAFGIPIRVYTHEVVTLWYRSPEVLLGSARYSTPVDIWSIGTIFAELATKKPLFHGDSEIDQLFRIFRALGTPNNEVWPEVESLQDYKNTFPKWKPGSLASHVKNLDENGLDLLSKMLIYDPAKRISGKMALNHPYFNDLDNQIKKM
Chain of CDK1/CyclinB1 (P14635 whole entry partner): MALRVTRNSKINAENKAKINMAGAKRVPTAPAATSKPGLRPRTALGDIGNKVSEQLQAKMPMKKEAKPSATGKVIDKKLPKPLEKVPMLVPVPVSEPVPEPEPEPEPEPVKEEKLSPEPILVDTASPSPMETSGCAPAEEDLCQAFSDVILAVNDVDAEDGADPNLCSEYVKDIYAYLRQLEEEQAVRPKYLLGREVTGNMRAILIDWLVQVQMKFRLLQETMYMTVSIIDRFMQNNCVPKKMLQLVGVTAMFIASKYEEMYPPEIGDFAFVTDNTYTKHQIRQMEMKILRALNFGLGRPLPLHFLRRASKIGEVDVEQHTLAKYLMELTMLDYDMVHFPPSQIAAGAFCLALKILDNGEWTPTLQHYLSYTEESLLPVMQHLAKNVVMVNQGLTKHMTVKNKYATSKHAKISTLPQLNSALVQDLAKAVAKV
Experimental: (§1) The purpose of these assays is to evaluate the inhibition of small molecule inhibitors by using TR-FRET assay.
(§2) Compound Preparation. Dissslove the compounds into DMSO solution to make 10 mM DMSO stock. Serially dilute the stock solution from highest concentration down to lowest in DMSO to make the compound stock plate (100× stock plates). To make 5× compound intermediate plate, add 38 μL of assay buffer (50 mM HEPES, pH 7.5, 0.05 mg/mL BSA, 10 mM MgCl2, 1 mM EGTA, 0.01% Tween-20, 2 mM DTT) into each well of the V-bottom plate; then transfer 2 μL of the stock compound solution of each concentration from the compound stock plate (100× stock), and mix well.
(§3) Enzyme reaction. Transfer 2 μL compound from 5× intermediate plate into assay plate, then add 4 μL/well 2.5× Enzyme mix to assay plate, incubation for 10 min at room temperature. For positive control wells, add 4 μL/well assay buffer instead of Enzyme mix. Then add 4 μL/well 2.5× Substrate mix to assay plate, and incubation at 25° C. for 30 min at room temperature. After reaction, 10 μL 2× Detection mix (final 15 mM EDTA, 1× LANCE Detection Buffer, 0.5 nM Detection antibody) was added and incubated for 1 h prior to detection with excitation and emission at 320 and 665 nm (Tecan Spark® TR-FRET mode Tecan).
(§4) Inhibition rate (IR) of the tested compounds was determined by the following formula: IR (%)=(average High control−compound well)/(average High control−average Low control)*100%. Fit the compound IC50 from non-linear regression equation: Y=Bottom+(Top−Bottom)/(1+10^((Log IC50−X)*HillSlope)). X: Log of cpd concentration; Y: Inhibition rate (TR); Top and Bottom: Plateaus in same units as Y, log IC50: same log units as X; HillSlope: Slope factor or Hill slope.

OVCAR3 cancer cells = assay: OVCAR3 proliferation assay (CellTiter-Glo); assay type: cell-based; settings: Homo sapiens, OVCAR-3, 144 h, 6 days incubation, read-out: OVCAR3 CTG IC50
Experimental: The OVCAR3 cancer cells were cultured at temperature 37° C., 5% CO2 incubator. The cells were routinely subcultured. The cells growing in an exponential growth phase were harvested and counted for plating. Plate 100 μL of cell suspension into the assay plates. Incubate the assay plates at 37° C., 5% CO2, 95% air and 100% relative humidity overnight. The compounds to be tested were dissolved in dimethyl sulfoxide and prepared with a stock concentration of 10 mM. Serially dilute the stock solution from highest concentration down to lowest in DMSO to make the compound stock plate (200× stock plates). Add 0.5 μL of the 200× compound of each well into the cells in assay plates. The final DMSO concentration was 0.5%. Return the assay plate into incubator and incubate for 6 days. The procedures were performed according to the Promega CellTiter-Glo Luminescent Cell Viability Assay Kit to detect cell viability.
as §4, with “(IR);” for “(TR);”, “Y;” for “Y,”

CDK9/CyclinT1 = CDK9/CyclinT1 (Homo sapiens (Human), UniProt P50750); assay: CDK9 kinase assay (TR-FRET); assay type: biochemical; settings: CDK9/CyclinT1 1.0 nM, ATP 3.5 μM
Chain of CDK9/CyclinT1 (P50750 whole entry): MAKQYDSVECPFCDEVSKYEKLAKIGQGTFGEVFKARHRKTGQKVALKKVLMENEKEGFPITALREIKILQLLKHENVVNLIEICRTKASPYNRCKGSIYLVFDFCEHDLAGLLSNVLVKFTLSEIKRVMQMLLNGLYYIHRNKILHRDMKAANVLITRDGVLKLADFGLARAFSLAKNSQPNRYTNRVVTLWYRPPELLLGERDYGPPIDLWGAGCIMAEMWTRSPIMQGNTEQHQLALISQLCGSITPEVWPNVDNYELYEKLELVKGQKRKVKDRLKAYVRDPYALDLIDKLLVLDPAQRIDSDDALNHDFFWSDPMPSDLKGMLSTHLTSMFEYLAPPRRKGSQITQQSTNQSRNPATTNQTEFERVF
Chain of CDK9/CyclinT1 (O60563 whole entry partner): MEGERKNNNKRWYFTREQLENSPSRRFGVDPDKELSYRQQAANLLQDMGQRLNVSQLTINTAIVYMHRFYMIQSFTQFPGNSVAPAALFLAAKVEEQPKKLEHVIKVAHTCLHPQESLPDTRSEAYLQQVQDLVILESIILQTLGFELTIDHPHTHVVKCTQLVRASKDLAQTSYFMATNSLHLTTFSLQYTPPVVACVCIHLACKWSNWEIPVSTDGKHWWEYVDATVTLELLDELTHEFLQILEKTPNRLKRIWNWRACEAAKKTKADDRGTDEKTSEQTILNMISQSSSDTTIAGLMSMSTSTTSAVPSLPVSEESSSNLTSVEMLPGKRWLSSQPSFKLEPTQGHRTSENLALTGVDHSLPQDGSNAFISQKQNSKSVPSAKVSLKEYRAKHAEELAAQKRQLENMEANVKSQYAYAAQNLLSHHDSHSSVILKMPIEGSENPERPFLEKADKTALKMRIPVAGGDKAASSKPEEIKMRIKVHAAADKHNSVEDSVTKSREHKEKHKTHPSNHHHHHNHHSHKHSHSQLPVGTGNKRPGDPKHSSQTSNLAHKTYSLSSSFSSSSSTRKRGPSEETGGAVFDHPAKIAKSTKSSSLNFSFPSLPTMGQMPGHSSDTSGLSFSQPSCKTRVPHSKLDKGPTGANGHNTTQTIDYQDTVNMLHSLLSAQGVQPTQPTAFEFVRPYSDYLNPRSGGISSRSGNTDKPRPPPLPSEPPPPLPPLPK
Experimental: as §1, §2, §3, §4

CDK4/CyclinD1 = CDK4/CyclinD1 (Homo sapiens (Human), UniProt P11802); assay: CDK4 kinase assay (TR-FRET); assay type: biochemical; settings: CDK4/CyclinD1 0.50 nM, ATP 225 μM
Chain of CDK4/CyclinD1 (P11802 whole entry): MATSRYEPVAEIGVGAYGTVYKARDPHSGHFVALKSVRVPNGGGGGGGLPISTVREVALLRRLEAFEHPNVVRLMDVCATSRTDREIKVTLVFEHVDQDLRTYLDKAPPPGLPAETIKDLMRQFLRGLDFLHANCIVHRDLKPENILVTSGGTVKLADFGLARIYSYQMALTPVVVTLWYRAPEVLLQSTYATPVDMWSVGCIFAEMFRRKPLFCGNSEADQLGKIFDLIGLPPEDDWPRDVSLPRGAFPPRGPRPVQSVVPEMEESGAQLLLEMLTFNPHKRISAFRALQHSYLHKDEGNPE
Chain of CDK4/CyclinD1 (P24385 whole entry partner): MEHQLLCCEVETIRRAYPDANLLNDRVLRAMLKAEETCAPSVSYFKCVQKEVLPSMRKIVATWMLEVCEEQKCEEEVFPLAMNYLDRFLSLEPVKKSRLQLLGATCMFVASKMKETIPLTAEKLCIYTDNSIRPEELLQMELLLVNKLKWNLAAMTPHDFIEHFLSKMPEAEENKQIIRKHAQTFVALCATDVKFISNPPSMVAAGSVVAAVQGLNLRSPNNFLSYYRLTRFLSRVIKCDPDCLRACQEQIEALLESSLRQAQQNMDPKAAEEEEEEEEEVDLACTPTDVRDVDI
Experimental: as §1, §2, §3, §4

CDK6/CyclinD3 = CDK6/CyclinD3 (Homo sapiens (Human), UniProt Q00534); assay: CDK6 kinase assay (TR-FRET); assay type: biochemical; settings: CDK6/CyclinD3 0.50 nM, ATP 140 μM
Chain of CDK6/CyclinD3 (Q00534 whole entry): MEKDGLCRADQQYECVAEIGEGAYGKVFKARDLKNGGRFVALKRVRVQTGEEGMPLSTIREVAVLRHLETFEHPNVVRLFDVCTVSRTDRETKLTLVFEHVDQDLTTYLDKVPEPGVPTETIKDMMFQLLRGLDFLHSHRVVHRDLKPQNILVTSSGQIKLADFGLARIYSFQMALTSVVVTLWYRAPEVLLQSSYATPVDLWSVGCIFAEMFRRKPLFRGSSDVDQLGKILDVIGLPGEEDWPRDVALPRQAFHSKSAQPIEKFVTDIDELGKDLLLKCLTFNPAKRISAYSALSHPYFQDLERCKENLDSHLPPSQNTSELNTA
Chain of CDK6/CyclinD3 (P30281 whole entry partner): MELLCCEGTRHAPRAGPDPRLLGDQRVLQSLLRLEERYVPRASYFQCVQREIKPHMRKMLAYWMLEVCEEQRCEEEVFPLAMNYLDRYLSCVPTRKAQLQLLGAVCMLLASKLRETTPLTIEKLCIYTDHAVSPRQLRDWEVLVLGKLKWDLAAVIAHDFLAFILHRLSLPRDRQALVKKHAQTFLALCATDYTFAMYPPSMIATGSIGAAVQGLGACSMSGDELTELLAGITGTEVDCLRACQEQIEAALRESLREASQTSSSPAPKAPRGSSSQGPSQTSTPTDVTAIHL
Experimental: as §1, §2, §3, §4

GSK3β = GSK3β (Homo sapiens (Human), UniProt P49841); assay: GSK3β kinase assay (TR-FRET); assay type: biochemical; settings: GSK3β 1.0 nM, ATP 8.0 μM
Chain of GSK3β (P49841 whole entry): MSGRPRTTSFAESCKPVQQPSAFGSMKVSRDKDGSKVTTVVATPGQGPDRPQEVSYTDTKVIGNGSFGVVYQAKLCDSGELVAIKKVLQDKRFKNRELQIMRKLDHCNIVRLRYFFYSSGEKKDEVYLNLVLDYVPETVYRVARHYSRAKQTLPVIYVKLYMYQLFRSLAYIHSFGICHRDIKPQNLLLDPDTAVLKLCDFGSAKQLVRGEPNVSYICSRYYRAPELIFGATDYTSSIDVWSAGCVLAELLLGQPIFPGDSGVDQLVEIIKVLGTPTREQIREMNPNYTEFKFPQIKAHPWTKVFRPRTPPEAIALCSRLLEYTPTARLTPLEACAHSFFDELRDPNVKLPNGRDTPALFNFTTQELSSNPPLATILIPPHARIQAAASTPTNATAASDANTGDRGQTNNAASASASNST
Experimental: as §1, §2, §3, §4

SMILES	pIC50 (CDK2/CyclinE1)	pIC50 (CDK1/CyclinB1)	also measured
CC(C)NC(=O)O[C@@H]1CC[C@H](C2=CC(NC(=O)[C@H]3C[C@@H]3[C@H](C)O)=NC2)C1 [Compound 136]	8.92	7.19	–
CC(C)NC(=O)O[C@@H]1CC[C@H](c2cc(NC(=O)C3CC(C)N(S(C)(=O)=O)C3)n[nH]2)C1 (single isomer, unassigned) [Compound 143]	8.92	7.22	pIC50 (CDK9/CyclinT1): 6.00
O=C(NC12CC(F)(C1)C2)O[C@@H]1CC[C@H](c2cc(NC(=O)[C@@H]3CCN(S(=O)(=O)C4CC4)C3)n[nH]2)C1 [Compound 181]	9.10	7.46	–
CC[C@H](C)NC(=O)O[C@@H]1CC[C@H](c2cc(NC(=O)[C@H]3C[C@@H]3COC)n[nH]2)C1 [Compound 33]	8.72	6.93	pIC50 (CDK4/CyclinD1): 6.19; pIC50 (CDK6/CyclinD3): 6.24
CC1(NC(=O)OC2COC(c3cc(NC(=O)Cc4cc(F)cc(F)c4)n[nH]3)C2)CCOC1 (stereo not shown) [Compound 53]	8.68	6.87	–
CC(C)NC(=O)OC1COC(c2cc(NC(=O)Cc3cc(F)cc(F)c3)n[nH]2)C1 (stereo not shown) [Compound 24]	8.74	6.99	–
C#C[C@H]1C[C@@H]1C(=O)Nc1cc([C@H]2CC[C@@H](OC(=O)NC(C)C)C2)[nH]n1 [Compound 41]	9.05	–	pIC50 (CDK4/CyclinD1): 6.51; pIC50 (CDK6/CyclinD3): 6.60; pIC50 (GSK3β): 6.24; pIC50 (OVCAR3 cancer cells): 6.71
CCS(=O)(=O)N1CC[C@@H](C(=O)Nc2cc([C@H]3CC[C@@H](OC(=O)NC(C)C)C3)[nH]n2)C1 [Compound 49]	8.66	6.88	pIC50 (GSK3β): 6.40
CC1(NC(=O)OC2COC(c3cc(NC(=O)Cc4cc(F)cc(F)c4)n[nH]3)C2)CCOC1 (stereo not shown) [Compound 52]	8.80	6.95	pIC50 (CDK4/CyclinD1): 6.00; pIC50 (CDK6/CyclinD3): 6.00; pIC50 (GSK3β): 6.00
Cn1nccc1C(=O)Nc1cc([C@@H]2C[C@H](OC(=O)NC34CC(C3)C4)CO2)[nH]n1 [Compound 97]	8.96	7.14	pIC50 (GSK3β): 6.42
Cn1nccc1C(=O)Nc1cc([C@H]2C[C@@H](OC(=O)NC3CCC3)CO2)[nH]n1 [Compound 122]	8.72	7.05	–
CC(C)(C)NC(=O)O[C@@H]1CC[C@H](c2cc(NC(=O)[C@@H]3CCN(S(C)(=O)=O)C3)n[nH]2)C1 [Compound 84]	8.80	–	pIC50 (OVCAR3 cancer cells): 7.13
CC1(NC(=O)O[C@@H]2CC[C@H](c3cc(NC(=O)[C@@H]4CCN(S(=O)(=O)C5CC5)C4)n[nH]3)C2)CCC1 [Compound 139]	9.15	–	–
CC(C)NC(=O)O[C@@H]1CC[C@H](c2cc(NC(=O)C34CC(C(=O)NO)(C3)C4)n[nH]2)C1 [Compound 126]	8.60	6.85	–
CC(C)NC(=O)O[C@@H]1CO[C@H](c2cc(NC(=O)Cc3ccccc3S(C)(=O)=O)n[nH]2)C1 [Compound 135]	7.87	–	–
CC(C)NC(=O)O[C@@H]1CC[C@H](c2cc(NC(=O)C3CC3c3cnnn3C)n[nH]2)C1 (single isomer, unassigned) [Compound 153]	8.68	–	–
CC(C)NC(=O)O[C@@H]1CC[C@H](c2cc(NC(=O)C3CC3C#N)n[nH]2)C1 (single isomer, unassigned) [Compound 118]	8.74	–	–
Cn1nccc1C(=O)Nc1cc([C@H]2CC[C@@H](OC(=O)NC3COC4(CCC4)C3)C2)[nH]n1 (single isomer, unassigned) [Compound 43]	7.92	–	–
C#C[C@H]1C[C@@H]1C(=O)Nc1cc([C@@H]2CC[C@H](OC(=O)NC3(C)COC3)C2)[nH]n1 [Compound 222]	8.96	–	–
CC#C[C@H]1C[C@@H]1C(=O)Nc1cc([C@H]2CC[C@@H](OC(=O)NC(C)C)C2)[nH]n1 [Compound 177]	9.00	–	–
CC(C)NC(=O)O[C@@H]1CC[C@H](c2cc(NC(=O)C3CC34CCOC4)n[nH]2)C1 (stereo partly shown) [Compound 174]	7.21	–	–
CCc1cc(C(=O)Nc2cc([C@H]3C[C@@H](OC(=O)NC(C)C)CO3)[nH]n2)n(C)n1 [Compound 79]	8.12	–	–
CC(C)NC(=O)O[C@@H]1CC[C@H](c2cc(NC(=O)C3CN(S(C)(=O)=O)CC3C)n[nH]2)C1 (stereo partly shown) [Compound 75]	7.94	–	–

Second part, led by results:

pIC50 (CDK2/CyclinE1)	pIC50 (CDK1/CyclinB1)	SMILES	also measured
9.05	–	CC(C)NC(=O)O[C@@H]1CC[C@H](c2cc(NC(=O)C34CC(C#N)(C3)C4)n[nH]2)C1 [Compound 109]	pIC50 (OVCAR3 cancer cells): 6.63
8.60	6.88	Cn1nccc1C(=O)Nc1cc([C@@H]2C[C@H](OC(=O)NC(C)(C)C)CO2)[nH]n1 [Compound 102]	–
9.00	7.23	C#CC1(NC(=O)O[C@H]2CO[C@@H](c3cc(NC(=O)c4ccnn4C)n[nH]3)C2)CCC1 [Compound 189]	–
8.96	7.16	C#C[C@H]1C[C@@H]1C(=O)Nc1cc([C@H]2CC[C@@H](OC(=O)NC3(C)COC3)C2)[nH]n1 [Compound 180]	pIC50 (CDK9/CyclinT1): 6.68
8.92	7.00	CCC(C)(C)NC(=O)O[C@@H]1CO[C@H](c2cc(NC(=O)c3ccnn3C)n[nH]2)C1 [Compound 191]	pIC50 (CDK9/CyclinT1): 6.88
8.82	7.13	CC[C@H](C)NC(=O)O[C@@H]1CO[C@H](c2cc(NC(=O)c3ccnn3C)n[nH]2)C1 [Compound 100]	pIC50 (GSK3β): 6.15
8.49	6.59	Cn1nccc1C(=O)Nc1cc([C@H]2CC[C@@H](OC(=O)NC3COC4(CCC4)C3)C2)[nH]n1 (single isomer, unassigned) [Compound 44]	–
7.84	–	CC(C)NC(=O)O[C@@H]1COC(c2cc(NC(=O)Cc3ccc(OCCN4CCCC4)cc3)n[nH]2)C1 (stereo partly shown) [Compound 128]	–
8.70	–	CC(C)NC(=O)O[C@H]1CO[C@@H](c2cc(NC(=O)c3ccnn3CC(F)F)n[nH]2)C1 [Compound 92]	–
7.21	–	CC(C)NC(=O)OC1COC(c2cc(NC(=O)c3ccccc3)n[nH]2)C1 (stereo not shown) [Compound 67]	–
7.75	–	CO[C@H]1CC[C@H](C(=O)Nc2cc([C@H]3CC[C@@H](OC(=O)NC(C)C)C3)[nH]n2)CC1 [Compound 2]	–
8.17	–	C#CC1(NC(=O)O[C@@H]2CO[C@H](c3cc(NC(=O)c4ccnn4C)n[nH]3)C2)CCC1 [Compound 198]	–
8.92	7.26	CC(C)NC(=O)O[C@@H]1CC[C@H](c2cc(NC(=O)[C@@H]3CCN(S(C)(=O)=O)C3)n[nH]2)C1 [Compound 25]	pIC50 (CDK4/CyclinD1): 6.29; pIC50 (CDK6/CyclinD3): 6.05
8.82	–	CC(C)NC(=O)O[C@@H]1CC[C@H](c2cc(NC(=O)C34CC(C3)C4)n[nH]2)C1 [Compound 46]	–
8.72	–	C#C[C@H]1C[C@@H]1C(=O)Nc1cc([C@@H]2C[C@H](OC(=O)NC(C)(C)CC)CO2)[nH]n1 [Compound 169]	–
9.10	–	Cn1nccc1C(=O)Nc1cc([C@H]2C[C@@H](OC(=O)NC34CC(C3)C4)CO2)[nH]n1 [Compound 96]	–
